Where no end group is shown, it is not given here.
System: λ-carrageenan acute inflammation
Assay: acute toe swelling in carrageenan-induced transgenic TNF-luc mice
Format: in vivo, BALB/c transgenic TNF-luc mice
Conditions: Adalimumab 8 mg/kg, mPEG-SC20k-HM-3 20 mg/kg sc
Description: Before modeling, 8 animals are randomly divided into 4 groups (n=2), a normal group, a model group, a positive drug group and a test treatment group. One hour before modeling, the normal group and the model group are hypodermically injected with normal saline (0.2 mL/20 g of body weight) respectively; the positive drug group is hypodermically injected with Adalimumab (8 mg/kg of body weight), 15 d/time, once; and the test treatment group is hypodermically injected with mPEG-SC20k-HM-3 (20 mg/kg of body weight), 2 d/time, twice. The initial ankle width, foot palm width and toe thickness of the left foot are measured as initial values.
Modeling starts at hour 0, 50 μL of 1% carrageenan is hypodermically injected into the bottom of left toe of transgenic TNF-luc mice, and the ankle swelling degree, foot palm swelling degree and toe swelling degree of each group of mice are measured with a vernier caliper at […], hour 1, hour 3, hour 5, hour 7, hour 9, hour 12, hour 24, hour 48, hour 72 and hour 96 respectively. Method for calculating toe swelling degree:
Swelling degree of left ankle (cm)=swelling thickness of left ankle during measurement−thickness of left ankle during initial measurement.
Swelling degree of left foot palm (cm)=swelling thickness of left foot palm during measurement−thickness of left foot palm during initial measurement.
Swelling degree of left toe (cm)=swelling thickness of left toe during measurement−thickness of left toe during initial measurement.

Row | Substance | left ankle swelling (1 h) [cm] | left foot (palm) swelling (1 h) [cm] | left toe swelling (1 h) [cm] | left ankle swelling (3 h) [cm] | left foot (palm) swelling (3 h) [cm] | left toe swelling (3 h) [cm] | left ankle swelling (5 h) [cm] | left foot (palm) swelling (5 h) [cm] | left toe swelling (5 h) [cm] | left ankle swelling (7 h) [cm] | left foot (palm) swelling (7 h) [cm] | left toe swelling (7 h) [cm] | left ankle swelling (9 h) [cm] | left foot (palm) swelling (9 h) [cm] | left toe swelling (9 h) [cm] | left ankle swelling (12 h) [cm] | left foot (palm) swelling (12 h) [cm] | left toe swelling (12 h) [cm] | left ankle swelling (24 h) [cm] | left foot (palm) swelling (24 h) [cm] | further results
1 | Adalimumab [reference compound] | 0.027 ± 0.018 | 0.042 ± 0.035 | 0.094 ± 0.054 | 0.008 ± 0.048 | 0.071 ± 0.016 | 0.115 ± 0.018 | 0.067 ± 0.010 | 0.092 ± 0.014 | 0.150 ± 0.028 | 0.064 ± 0.006 | 0.094 ± 0.011 | 0.126 ± 0.014 | 0.045 ± 0.004 | 0.088 ± 0.025 | 0.126 ± 0.021 | 0.050 ± 0.003 | 0.090 ± 0.031 | 0.114 ± 0.025 | 0.086 ± 0.031 | 0.132 ± 0.006 | left toe swelling (24 h): 0.235 ± 0.134 cm; left ankle swelling (48 h): 0.105 ± 0.075 cm; left foot (palm) swelling (48 h): 0.152 ± 0.074 cm; left toe swelling (48 h): 0.264 ± 0.122 cm; left ankle swelling (72 h): 0.096 ± 0.051 cm; left foot (palm) swelling (72 h): 0.150 ± 0.066 cm; left toe swelling (72 h): 0.238 ± 0.113 cm; left ankle swelling (96 h): 0.076 ± 0.034 cm; left foot (palm) swelling (96 h): 0.133 ± 0.061 cm; left toe swelling (96 h): 0.174 ± 0.102 cm
2 | mPEG-SC20k-Ile-Val-Arg-Arg-Ala-Asp-Arg-Ala-Ala-Val-Pro-Gly-Gly-Gly-Gly-Arg-Gly-Asp ({mPEG‑SC 20k}-IVRRADRAAVPGGGGRGD) [polypeptide III, No. 3] | 0.060 ± 0.045 | 0.101 ± 0.027 | 0.132 ± 0.054 | 0.079 ± 0.052 | 0.092±0.054 | 0.114 ± 0.025 | 0.117 ± 0.033 | 0.125 ± 0.035 | 0.146 ± 0.003 | 0.074 ± 0.014 | 0.116 ± 0.034 | 0.174 ± 0.065 | 0.061 ± 0.013 | 0.086 ± 0.008 | 0.124 ± 0.014 | 0.055 ± 0.018 | 0.091 ± 0.004 | 0.113 ± 0.027 | 0.066 ± 0.003 | 0.107 ± 0.010 | left toe swelling (24 h): 0.136 ± 0.011 cm; left ankle swelling (48 h): 0.051±0.044 cm; left foot (palm) swelling (48 h): 0.105 ± 0.010 cm; left toe swelling (48 h): 0.126 ± 0.031 cm; left ankle swelling (72 h): 0.032±0.074 cm; left foot (palm) swelling (72 h): 0.101 ± 0.016 cm; left toe swelling (72 h): 0.094±0.034 cm; left ankle swelling (96 h): 0.032±0.042 cm; left foot (palm) swelling (96 h): 0.076±0.006 cm; left toe swelling (96 h): 0.084±0.040 cm

Source: patent US20220202912A1, “Polypeptides in Preparation of Drugs for Treatment or Prevention of Rheumatoid Arthritis” (priority 2011, published 2022)
